Results reported in patent publication US20230404980A1, “METHODS OF TREATING SPONDYLOARTHRITIS OR SYMPTOMS THEREOF” (UNIVERSITY HEALTH NETWORK, priority 2020, published 2023).

Key:
[1] = cited from earlier work
[2] = system: curdlan-treated SKG mice; assay: Flow cytometry of immune cell populations from curdlan-treated SKG mice; assay type: in vivo, mouse
Description: (§1) Methods: Curdlan (β-glucan) or MIF-plasmid (mini-circle) treated SKG mice (8-10 weeks) were used as SpA mouse models. The expression of MIF in serum or tissues was measured by ELISA, quantitative PCR (qPCR), western blotting, immunohistochemistry (IHC) and/or immunofluorescence (IF). MIF knockout (KO) SKG mice were generated as MIF deficiency mice. MIF inhibitor (MIF098) was used to block the function of MIF in SpA mouse models to assess the therapeutic or prophylactic effects in a curdlan-treated SpA mouse model. Populations of immunological cells were assessed by flow cytometry. Anti-Gr-1 monoclonal antibody (mAb) or isotype control mAb was used to block the function of neutrophils or monocytes. Clinical scores, histopathology and microCT imaging were used to assess the severity of inflammation in the various tissues of the mouse models.
(§2) After 1 or 4 weeks post-curdlan treatment, we injected MIF antagonist (MIF098; 40 mg/kg, twice/day, i.p.) (23) or control vehicle [PEG400 (Sigma, cat#91893) and HP-P-P-CD (Sigma, cat#C0926)] to assess the prophylactic and therapeutic effects of the MIF098 on the inflammation and NBFs in the SpA mouse model until 8 weeks post-curdlan treatment. Anti-mouse Gr-1 antibody (100 μg/mouse, Life Technologies) or isotype IgG monoclonal antibodies (100 μg/mouse, Life Technologies) were administered on day 3, 6, 9, 12 and 15 post-curdlan treatment.
(§3) Clinical scores for SpA-related manifestations were assessed based on severity scales (Table 1); arthritis, maximum 6 points; dermatitis, maximum 2 points; blepharitis, maximum 2 points). The scores were evaluated at least 2 independent scorers in a blinded fashion and final scores were the average of the observations. At the endpoint, ankle joints, spleen and lymph nodes (PLNs and MLNs) were dissected for FACS, one ankle was dissected prior to storage in RNA later for qPCR unless used for FACS, the other ankle was kept intact and fixed in 10% neutral buffered formalin for histopathological assessments. The upper tail spine, pelvis, eyes and ileum were dissected and fixed in 10% neutral buffered formalin for histopathology. For ankle digestion, skin was peeled off and toes (at distal phalanges) and tibia (˜0.5 cm above tibia) were cut off. After flushing bone marrow, the tissue was digested with RPMI culture media containing hyaluronidase and collagenase type VIII for 1 h at 37° C. in incubator. Following passing through 70 μm of cell strainer and RBC lysis treatment, cells were centrifuged and used for FACS analysis.
For all panels, single cell suspensions were first stained with a fixable live dead stain (L/D NIR, Invitrogen, cat#L10119) as directed by the manufacturers. Cells were blocked with FcX (BioLegend, cat#101320) or Monocyte Blocker (BioLegend, cat#426102) prior to staining with surface antibodies. For experiments in which transcription factors were stained, cells were fixed and permeabilized with True-Nuclear kit (BioLegend, cat#424401) as directed. For experiments in which cytokines were stained, cells were fixed with a PFA buffer and permeabilized with intracellular staining buffer (BioLegend, cat#420801 and cat#421002) as indicated. Brefeldin A (BioLegend, cat#420601) with or without PMA/ionomycin (BioLegend, cat#423302) were used for in vitro stimulations to detect intracellular cytokines. Data were acquired on LSR II or Canto II (BD) and analyzed with FlowJo (version 10.6, Becton Dickinson).

[3] = system: curdlan-treated SKG mice; assay: Curdlan-treated SKG mouse model of SpA: clinical scores, histopathology, microCT; assay type: in vivo
Description: as §1
#1. Animal model, treatments and clinical scoring: Female and male SKG mice (age 8-10 weeks) were injected with PBS, curdlan (3 mg/mouse, i.p.), MIF-plasmid (EEV, 5 μg/mouse, i.v., from systemic biosciences), or control-plasmid (5 μg/mouse, i.v., from systemic biosciences) to induce SpA phenotype and weekly observed the clinical manifestations of inflammation and NBFs over 8 weeks (n=10 mice/group). C57BL/6 and BALB/c mice (age 8-10 weeks) were also subjected to MIF- or control-plasmid injection to observe clinical symptoms. MIF- or control plasmid was administered by HDD tail vein injection as previously described (11). We also generated Mif−/− (KO) SKG mice by crossing SKG mice and BALB/c Mif KO mice (22).
as §2, §3
Ankle joints, tail spine, and pelvis were fixed in 10% neutral buffered formalin for at least 72 h, decalcified in 10% EDTA (BioShop) for 14-21 days and embedded in paraffin. Eyes and ileum were fixed in formalin for at least 72 h without decalcification. Serial sections (4 μm) were stained with hematoxylin and eosin (H&E; Fisher Scientific). To assess endochondral ossification, safranin O/ fast green staining was also applied to NBF in distal tibia as previously described (24, 25). For histological scores, multiple sections (three sections approximately 40-80 μm apart) per joint sample were evaluated by 2 independent scorers in a blinded fashion according to histological assessments as previously reported (11, 24). […]

[4] = system: human Tregs; assay: Th17 acquisition assay in human Tregs and cytokine measurement; assay type: cell-based; conditions: rhMIF 50 ng/ml, 12 days
Description: Human naïve CD4+ T cells and Tregs (CD4+CD25+CD127low) were isolated from PBMCs of healthy male controls without any history of back pain, arthritis, and joint injuries (age: 18-40, n=4 individuals in total) using the human naïve T cells isolation kit (STEM CELL, Cat #19555) and Treg isolation kit (STEM CELL, cat#18063), respectively. Isolated human Tregs (3×10^4 cells/well) were cultured in the complete IMDM culture media containing ImmunoCult™ Human CD3/CD28/CD2 T Cell Activator (25 μl/ml, STEMCELL, cat#10970), and rhIL-2 (100 IU/ml, BioLegend, cat#589102) alone or in combination with or without rhMIF (50 ng/ml, BioLegend, cat#599404), rhIL-1β (25 ng/ml, BioLegend, cat#579402) and rhIL-23 (100 ng/ml, BioLegend, cat#574102) for 12 days. Each culture media was replaced ever 2-3 days. The cells were used for further analysis.
Released cytokine in cell culture supernatant on day 12 was quantified using the LEGENDplex Human Th17 Cytokine Panel (BioLegend, cat#741032) according to the manufacturer's instructions.
For all panels, single cell suspensions were first stained with a fixable live dead stain (L/D NIR, Invitrogen, cat#L10119) as directed by the manufacturers. Cells were blocked with FcX (BioLegend, cat#101320) or Monocyte Blocker (BioLegend, cat#426102) prior to staining with surface antibodies. For experiments in which transcription factors were stained, cells were fixed and permeabilized with True-Nuclear kit (BioLegend, cat#424401) as directed. […] Data were acquired on LSR II or Canto II (BD) and analyzed with FlowJo (version 10.6, Becton Dickinson).
The concentration of MIF in SKG mice or culture supernatant media and the concentration of IL-17A in the human Tregs culture media were assessed by mouse MIF ELISA kit (LEGEND MAX™ Mouse MIF ELISA Kit, BioLegend, cat# 44107) and Human IL-17A ELISA kit (LEGEND MAX™ Human IL-17A ELISA Kit, BioLegend, cat# 433917) were used, respectively. Samples were analyzed according to the manufacture's instruction.

[5] = SKG SpA mouse model, summary of Example 1
[6] = prophylactic MIF098, 8 weeks post-curdlan, vs CTL
[7] = prophylactic: MIF098 40 mg/kg i.p. twice daily from 1 to 8 weeks post-curdlan, female SKG mice, vs CTL

In the case of `CC(C)C(=O)c1c(C(C)C)nn2ccccc12` [Ibudilast, 2-methyl-1-(2-propan-2-ylpyrazolo[1,5-a]pyridin-3-yl)propan-1-one], the “toxicity in clinical trials” value ([1]; clinical trials for asthma and multiple sclerosis) is listed as “minimal toxicity” and the safety ([1]; single 30-mg dose followed by 14 days of 30 mg b.i.d, healthy adults) is listed as “generally safe”.

In the case of `C=C1Cc2ccc(C)cc2C1Cc1cccc(C)c1` (stereo not shown) [MIF098], the “populations of Th17” value [2, 5] is reported as “decreased populations of Th17”, the “regulatory T (Treg) cells” value [2, 5] is reported as “increased” and the “RORγt+Foxp3+CD4+ T cells” value ([2]; curdlan-treated SKG mice, 8 weeks post-curdlan, vs CTL) is reported as “decreased”. For the same molecule, the “frequency of ILC3s in PLNs” value [2, 6] was “significantly deceased”, the “frequency of Th17 lineage cells in PLNs” value [2, 6] was “significantly deceased” and the “percentage of Th17 lineage cells in spleen” value [2, 6] was “no significant difference”. For the same molecule, the “percentage of Tregs (PLNs)” value [2, 6] was “significant increase”, the “percentage of Tregs in spleen” value [2, 6] was “significant increase” and the “percentage of inflammatory macrophages in the ankle joints” value [2, 6] was “no difference between groups”. For the same molecule, the “percentage of patrolling macrophages in the ankle joints” value [2, 6] was “increase”, the ILC2s ([2]; prophylactic MIF098, curdlan-treated SKG mice, vs CTL) was “remarkably increased” and the “SpA clinical manifestations (colitis, psoriasis, arthritis in axial and peripheral joints)” value ([3]; SKG SpA mouse model, MIF blockade) was “dramatically suppressed or attenuated”. The “inflammation in the ankle, tail spine, sacroiliac joints, and ileum (histology and histopathology scoring)” value ([3]; prophylactic, 8 weeks post-curdlan, vs CTL) was “Lower severity of inflammation”, the “new bone formation (NBF), microCT imaging and histological assessments” value ([3]; prophylactic, distal tibia, 8 weeks post-curdlan, vs CTL) was “did not display an evident NBF” and the “severity of blepharitis (clinical score)” value [3, 7] was “reduced severity”. The “severity of psoriasis-like dermatitis (clinical score)” value [3, 7] was “reduced severity”, the “severity of arthritis (clinical score)” value ([3]; prophylactic: MIF098 40 mg/kg i.p. twice daily from 1 to 8 weeks post-curdlan, female SKG mice, vs vehicle control (CTL)) was “reduced severity” and the “severity of psoriasis-like dermatitis” value ([3]; therapeutic: MIF098 from 4 weeks to 8 weeks post-curdlan, female SKG mice, vs CTL) was “reduced the severity”. The “new bone formation (NBF), histological assessments” value ([3]; therapeutic: MIF098 from 4 weeks to 8 weeks post-curdlan, vs CTL) was “reduced” and the severity of arthritis ([3]; therapeutic: MIF098 injected from 4 weeks to 8 weeks post-curdlan, female SKG mice, vs CTL) was “reduced the severity”.

B1: rhMIF: recombinant human MIF (BioLegend) used to stimulate human Tregs (protein, UniProt P14174 2-115, looked up)
Macrophage migration …: PMFIVNTNVPRASVPDGFLSELTQQLAQATGKPPQYIAVHVVPDQLMAFGGSSEPCALCSLHSIGKIGGAQNRSYSKLLCGLLAERLRISPDRVYINYYDMNAANVGWNNSTFA
With B1 the “release of IL-6” value [4] was “without increased release”, the “frequency of RORγt+CD4+ T cells from Tregs” value ([4]; in the presence of IL1β and IL23, vs without rhMIF) was “increased” and the “secretion of IL-17A into the culture media” value ([4]; vs control-treated Tregs) was “significantly higher”.
